Holding throughout (test): NCI tumour cell line growth inhibition, 48 h
The test system of assay [1] is SF-268 CNS.
Assay [2] has as its system CAKI-1 renal.
The subject of assay [3] is MCF7 breast.
Assay [4] concerns SNB-75 CNS.
Assay [5] has as its system NCI-H23 lung.
Assay [6] has as its system MDA-MB-231 breast.
The test system of assay [7] is SK-OV-3 ovarian.
Assay [8] relates to SF-539 CNS.
Assay [9] concerns DU-145 prostate.
The subject of assay [10] is HCT-116 colon.

“And” between values parts separate entries of the source, which are not always exact repeats. Equal values may be shown once.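 Test compounds were applied to cells in 96-well plates for 48 hours at 5 doses. Abbreviation: GI50, concentration required for 50% inhibition of growth. The concentration for full growth arrest is given as TGI.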 Where a SMILES comes first, the peptide text is derived from it. [ ]: non-standard residue; d: D form. The star is where a group is joined. ξ: configuration not given here. NMeY = CN[C@@H](Cc1ccc(O)cc1)C(=O)O; Cbz = O=C(OCc1ccccc1)*; ξA = CC(N)C(=O)O

`O=C(C[C@@H]1NCCC[C@H]1O)Cn1cnc2cc(Br)c(Cl)cc2c1=O`: the TGI in assay [1] stood at 0.61 µM; in assay [2], 0.313 µM; in assay [3], 20.3 µM; in assay [4], 0.338 µM; in assay [5], 0.11 µM; in [6] it was 0.285 µM. In addition, the TGI was determined as 0.813 µM in assay [7], 0.347 µM in [8], 0.0919 µM in assay [9] and 0.121 µM in assay [10].
Take `O=C1c2cc3c(cc2CC12Cc1cc4c(cc1C2)CCC4)CCC3`: the TGI in [1], in assay [2], in assay [3], in assay [4], in [5] and in [6] was greater than 100 µM each time. Besides, the TGI in assay [7], in [8], in [9] and in assay [10] was greater than 100 µM throughout.
Regarding `Cc1ccc(Nc2nc(=O)[nH]c(=O)[nH]2)cc1N`, the TGI in assay [1], in assay [2], in assay [3], in [4], in [5] and in assay [6] was greater than 100 µM throughout. In addition, the TGI in assay [7], in assay [8], in assay [9] and in [10] was greater than 100 µM each time.
For the molecule `COc1ccc(C[C@@H](C(=O)NCC(N)=O)N(C)C(=O)[C@@H]2CCCN2C(=O)[C@H](CC(C)C)NC(=O)C(C)NC(=O)OCc2ccccc2)cc1` (some centres not stated) (Cbz-[ξA]LP[NMeY](Me)G-NH2), the TGI in assay [1], in assay [2], in assay [3], in assay [4], in assay [5] and in [6] was greater than 100 µM each time. Moreover, the TGI in assay [7], in assay [8], in assay [9] and in [10] was greater than 100 µM throughout.
For the molecule `Oc1ccc2ccccc2c1-c1nnc(CCCCCCCCc2nnc(-c3c(O)ccc4ccccc34)o2)o1`, the TGI in assay [1] was greater than 100 µM; in [2] it was 3.11 µM; in assay [3], greater than 37.2 µM; in assay [4], 25 µM and > 100 µM; in [5], 6.33 µM and > 62.2 µM; in [7], greater than 100 µM. Moreover, the TGI was 16.4 µM in assay [8]; 9.59 µM and > 24.2 µM in [9]; 13.7 µM and > 50.3 µM in assay [10]. Also, the GI50 in assay [2] was 0.698 µM; in assay [4], 27.2 µM; in [5], 1.22 µM; in assay [6], 0.583 µM; in [9], 2.38 µM; in assay [10], 0.796 µM.
Regarding `O=C1/C(=C/c2ccccc2S)N=C(c2ccccc2)N1c1ccc2c(c1)Sc1cc(N3C(=O)/C(=C/c4ccccc4S)N=C3c3ccccc3)ccc1N2`, the TGI was determined as 39.6 µM in [1]; 41.7 µM in assay [2]; 39.1 µM in assay [3]; 38.4 µM in assay [4]; 89.9 µM in assay [6]; 33.8 µM in assay [7]. For the same molecule, the TGI was 24.1 µM in [8], 40.4 µM in assay [9] and 40.8 µM in assay [10].
As to `CCOC(=O)CCC(NC(=O)OCc1ccccc1)C(=O)NNC(=O)OC(C)(C)C` (configuration not stated), the TGI in assay [1], in assay [2], in assay [3], in [4], in [5] and in assay [6] was greater than 100 µM in each case. Further, the TGI in assay [7], in assay [8], in [9] and in [10] was greater than 100 µM throughout.
`COc1cc(C2C(Cl)C(=O)N2c2ccc(Br)cc2)cc(I)c1O` (configuration not stated): the TGI in assay [1], in [2], in assay [3], in assay [4], in [5] and in assay [6] was greater than 100 µM throughout. For the same molecule, the TGI in [7], in assay [8], in assay [9] and in assay [10] was greater than 100 µM throughout.
Turning to `CCOC(=O)c1cc(-c2ccc(OC)c(OC)c2)c[nH]1`, the TGI in assay [1], in [2], in [3], in [4], in assay [5] and in assay [6] was greater than 10 µM each time. The TGI in assay [7], in [8], in assay [9] and in assay [10] was greater than 10 µM each time.
Turning to `O=C1CCC2(CC1)Cc1ccccc1C2O` (configuration not stated), the TGI in assay [1], in assay [2], in assay [3], in [4], in [5] and in [6] was greater than 100 µM each time. For the same molecule, the TGI in assay [7], in assay [8], in assay [9] and in assay [10] was greater than 100 µM throughout.
In the case of `CC(=O)Oc1ccc2cc(Oc3ccc(Cl)cc3)c(=O)oc2c1`, the TGI in assay [1], in [2], in assay [3], in [4], in [5] and in assay [6] was greater than 100 µM throughout. For the same molecule, the TGI in [8] is 82.7 µM; in assay [9], greater than 100 µM; in assay [10] it was greater than 100 µM.
In the case of `CC1(C)CC(=O)C(/C=N/c2nc(-c3ccc(Br)cc3)cs2)=C(O)C1`, the TGI in assay [2] was 63.3 µM; in assay [3] it was greater than 100 µM; in assay [4], 72.8 µM; in assay [5], 83.9 µM; in [6], greater than 100 µM; in assay [7], greater than 100 µM. The TGI was 61 µM in assay [8], greater than 100 µM in [9] and greater than 100 µM in [10].
Take `Cc1ccc(-c2cc(-c3ccc(Cl)cc3)nc(/N=C3\C(=O)N(CN4CCCCC4)c4ccc(Cl)cc43)n2)cc1`: the TGI in assay [1] is 40.3 µM; in assay [2], 64.7 µM; in assay [3], 77.9 µM; in assay [4] it was greater than 100 µM; in [5] it was 51.5 µM; in [6], greater than 100 µM. Moreover, the TGI is greater than 100 µM in [7], 61.5 µM in assay [8], greater than 100 µM in assay [9] and 76.1 µM in assay [10].

(Values after PubChem BioAssay (NCI).)
